Biological target: T1, F508del in NIH 3T3 cells (Homo sapiens, UniProt P13569, DEL508-508)
T1 construct: expressed in transfected cells
Test: 3T3 assay: membrane potential optical assay for F508del correction
Assay type: cell-based
Settings: NIH 3T3 cells, F508del; for Emax: NIH3T3, read-out: 3T3 Max Activity (%); for EC50: read-out: 3T3 EC50
Excerpt: 1. Membrane Potential Optical Methods for Assaying F508del Modulation Properties of Compounds
The assay utilizes fluorescent voltage sensing dyes to measure changes in membrane potential using a fluorescent plate reader (e.g., FLTPR III, Molecular Devices, Inc.) as a readout for increase in functional F508del in NIH 3T3 cells. The driving force for the response is the creation of a chloride ion gradient in conjunction with channel activation by a single liquid addition step after the cells have previously been treated with compounds and subsequently loaded with a voltage sensing dye.
2. Identification of Corrector Compounds
To identify correctors of F508del, a single-addition HTS assay format was developed. This HTS assay utilizes fluorescent voltage sensing dyes to measure changes in membrane potential on the FLIPR III as a measurement for increase in gating (conductance) of F508del in F508del NUT 3T3 cells. The F508del NUT 3T3 cell cultures were incubated with the corrector compounds at a range of concentrations for 18-24 hours at 37° C., and subsequently loaded with a redistribution dye. The driving force for the response is a Cl^− ion gradient in conjunction with channel activation with forskolin in a single liquid addition step using a fluorescent plate reader such as FLIPR III.
Bath Solution #1: (in mM) NaCl 160, KCl 4.5, CaCl2 2, MgCl2 1, HEPES 10, pH 7.4 with NaOH.
Chloride-free bath solution: Chloride salts in Bath Solution #1 (above) are substituted with gluconate salts.
NIH3T3 mouse fibroblasts stably expressing F508del were used for optical measurements of membrane potential. The cells were maintained at 37° C. in 5% CO2 and 90% humidity in Dulbecco's modified Eagle's medium supplemented with 2 mM glutamine, 10% fetal bovine serum, 1×NEAA, b-ME, 1×pen/strep, and 25 mM HEPES in 175 cm^2 culture flasks. For all optical assays, the cells were seeded at ˜20,000/well in 384-well Matrigel-coated plates. For the correction assays, the cells were cultured at 37° C. with and without compounds for 16-24 hours.

T1 sequence (P13569 with tags, fused parts or gaps DEL508-508): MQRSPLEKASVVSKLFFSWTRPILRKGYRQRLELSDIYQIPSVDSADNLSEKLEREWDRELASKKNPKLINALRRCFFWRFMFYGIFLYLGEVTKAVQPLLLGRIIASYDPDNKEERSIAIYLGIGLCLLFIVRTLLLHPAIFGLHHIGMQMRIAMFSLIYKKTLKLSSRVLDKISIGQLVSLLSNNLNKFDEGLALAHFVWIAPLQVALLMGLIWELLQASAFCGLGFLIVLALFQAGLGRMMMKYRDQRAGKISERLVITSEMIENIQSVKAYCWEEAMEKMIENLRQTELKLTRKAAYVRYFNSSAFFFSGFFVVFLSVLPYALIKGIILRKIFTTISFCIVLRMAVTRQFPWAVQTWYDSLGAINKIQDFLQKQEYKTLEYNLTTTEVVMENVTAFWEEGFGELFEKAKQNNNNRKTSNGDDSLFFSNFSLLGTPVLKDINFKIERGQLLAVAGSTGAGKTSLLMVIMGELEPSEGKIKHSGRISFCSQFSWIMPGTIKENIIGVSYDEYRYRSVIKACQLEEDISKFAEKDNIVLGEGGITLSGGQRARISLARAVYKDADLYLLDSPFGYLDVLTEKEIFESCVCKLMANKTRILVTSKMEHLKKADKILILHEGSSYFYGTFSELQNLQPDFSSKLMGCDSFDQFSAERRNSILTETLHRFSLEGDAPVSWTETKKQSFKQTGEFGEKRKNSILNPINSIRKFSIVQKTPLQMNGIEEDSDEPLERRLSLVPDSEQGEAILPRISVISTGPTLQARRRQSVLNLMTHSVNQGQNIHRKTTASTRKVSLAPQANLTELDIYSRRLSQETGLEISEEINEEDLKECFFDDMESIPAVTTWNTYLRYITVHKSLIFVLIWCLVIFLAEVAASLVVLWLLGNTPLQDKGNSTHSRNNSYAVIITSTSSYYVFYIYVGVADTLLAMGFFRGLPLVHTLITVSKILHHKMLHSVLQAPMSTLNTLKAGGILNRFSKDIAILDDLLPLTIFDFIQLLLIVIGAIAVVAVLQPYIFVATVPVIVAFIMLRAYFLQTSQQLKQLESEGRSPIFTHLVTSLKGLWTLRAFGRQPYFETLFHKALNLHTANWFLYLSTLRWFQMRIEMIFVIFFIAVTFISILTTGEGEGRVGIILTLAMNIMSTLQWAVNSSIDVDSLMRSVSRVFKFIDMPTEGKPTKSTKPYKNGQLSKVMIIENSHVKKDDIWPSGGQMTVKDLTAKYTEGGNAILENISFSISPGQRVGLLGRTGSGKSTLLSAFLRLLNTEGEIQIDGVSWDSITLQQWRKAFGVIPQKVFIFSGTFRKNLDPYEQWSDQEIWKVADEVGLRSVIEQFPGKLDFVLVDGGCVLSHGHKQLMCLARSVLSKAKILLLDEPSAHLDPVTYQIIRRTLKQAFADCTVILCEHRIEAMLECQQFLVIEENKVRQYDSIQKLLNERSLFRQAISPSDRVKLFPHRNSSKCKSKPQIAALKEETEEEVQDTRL

| Compound | Emax [%] | EC50 [µM] |
| --- | --- | --- |
| Cc1nc(NS(=O)(=O)c2ccccc2)sc1-c1csc(Nc2ccccn2)n1 [Compound 30, N-[4-methyl-5-[2-(2-pyridylamino)thiazol-4-yl]thiazol-2-yl]benzenesulfonamide] | 30 to 60 | 1 to 3 |
| O=S(=O)(Nc1nn(-c2ccccc2)cc1-c1cccs1)c1ccccc1 [Compound 75, N-[1-phenyl-4-(2-thienyl)pyrazol-3-yl]benzenesulfonamide] | < 30 | – |
| Cc1ccc(-c2nc(NS(=O)(=O)c3ccccc3)ccc2C)cc1C [Compound 134, N-[6-(3,4-Dimethylphenyl)-5-methyl-2-pyridyl]benzenesulfonamide] | > 60 | 3 to 30 |
| COc1ccc(-c2cn(-c3cccc(Cl)c3)nc2NS(=O)(=O)c2ccccc2)cc1 [Compound 90, N-[1-(3-chlorophenyl)-4-(4-methoxyphenyl)pyrazol-3-yl]benzenesulfonamide] | < 30 | < 1 |
| COc1ccc(-c2cc(NS(=O)(=O)c3ccccc3)nn2-c2c(C)cc(C)cc2C)cc1 [Compound 59, N-[5-(4-methoxyphenyl)-1-(2,4,6-trimethylphenyl)pyrazol-3-yl]benzenesulfonamide] | 30 to 60 | < 1 |
| COc1cccc(-c2cn(-c3cccc(Cl)c3)nc2NS(=O)(=O)c2ccccc2)c1 [Compound 91, N-[1-(3-chlorophenyl)-4-(3-methoxyphenyl)pyrazol-3-yl]benzenesulfonamide] | 30 to 60 | 1 to 3 |
| Cc1nc(NS(=O)(=O)c2ccccc2)sc1-c1csc(Nc2ncccn2)n1 [Compound 44, N-[4-methyl-5-[2-(pyrimidin-2-ylamino)thiazol-4-yl]thiazol-2-yl]benzenesulfonamide] | < 30 | – |
| CC(C)Cc1cn(-c2cccc(Cl)c2)nc1NS(=O)(=O)c1ccccc1 [Compound 81, N-[1-(3-chlorophenyl)-4-isobutyl-pyrazol-3-yl]benzenesulfonamide] | < 30 | – |
| CCOC(=O)C1=C(c2ccccc2)N=C(NS(=O)(=O)c2ccccc2)SC1c1ccccc1 (centres unmarked) [Compound 116, ethyl 2-(benzenesulfonamido)-4,6-diphenyl-6H-1,3-thiazine-5-carboxylate] | > 60 | < 1 |
| O=C(Nc1ccccc1)c1sc(NS(=O)(=O)c2ccccc2)nc1-c1ccccc1 [Compound 33, N,4-diphenyl-2-(phenylsulfonamido)thiazole-5-carboxamide] | < 30 | – |

More lines, now with the values ahead:

| Emax [%] | EC50 [µM] | Compound |
| --- | --- | --- |
| > 60 | 1 to 3 | C/C=C/c1ccc(NS(=O)(=O)c2ccccc2)nc1Oc1ccccc1 [Compound 141, N-[6-phenoxy-5-[(E)-prop-1-enyl]-2-pyridyl]benzenesulfonamide] |
| < 30 | – | O=S(=O)(Nc1ncc(Cc2cnccn2)s1)c1ccccc1 [Compound 31, N-[5-(pyrazin-2-ylmethyl)thiazol-2-yl]benzenesulfonamide] |
| < 30 | – | Cc1sc(NS(=O)(=O)c2ccccc2)nc1-c1ccncc1 [Compound 43, N-[5-methyl-4-(4-pyridyl)thiazol-2-yl]benzenesulfonamide] |
| 30 to 60 | 1 to 3 | O=S(=O)(Nc1nn(-c2cccc(Cl)c2)cc1C1=CCCCC1)c1ccccc1 [Compound 87, N-[1-(3-chlorophenyl)-4-(cyclohexen-1-yl)pyrazol-3-yl]benzenesulfonamide] |
| > 60 | 1 to 3 | COc1ccccc1-c1cc(NS(=O)(=O)c2ccccc2)nn1-c1c(C)cc(C)cc1C [Compound 60, N-[5-(2-methoxyphenyl)-1-(2,4,6-trimethylphenyl)pyrazol-3-yl]benzenesulfonamide] |
| < 30 | – | O=C(NCCOCC1CC1)c1sc(NS(=O)(=O)c2ccccc2)nc1-c1ccccc1 [Compound 37, 2-(benzenesulfonamido)-N-[2-(cyclopropylmethoxy)ethyl]-4-phenyl-thiazole-5-carboxamide] |
| < 30 | – | CC(C)=Cc1cn(Cc2ccccc2)nc1NS(=O)(=O)c1ccccc1 [Compound 104, N-[1-benzyl-4-(2-methylprop-1-enyl)pyrazol-3-yl]benzenesulfonamide] |
